For experiment [1], the target named is PASK (UniProt # Q96RG2; human recombinant N-terminal GST tagged construct, residues 879-1323) (Homo sapiens (Human), UniProt Q96RG2). In words: PASK ATP Radiochemical Assay. Format: biochemical. The note with it: 33P-ATP radiochemical, Myelin Basic Protein substrate; read-out: IC50 Kinase Domain. On the procedure: PASK ATP Radiochemical Assay
Test compounds in DMSO are then added and the mixture, followed by delivery of ^33P-ATP (specific activity 0.01 μCi/μl final) to initiate the reaction. […] The entire reaction mixture is washed through onto a P81 Phosphocellulose paper and washed three times for 10 minutes in 75 mM phosphoric acid and once in methanol prior to drying and scintillation counting.

Experiment [2] concerns the target PASK (Homo sapiens (Human), UniProt Q96RG2). Description: PAS Kinase FRET Assay. Format: biochemical. The note with it: TR-FRET, Ulight-peptide substrate; read-out: IC50 Kinase Domain. From the text: PAS Kinase FRET Assay The aim of the FRET assay is to determine the inhibition potential of test compounds on targeted kinase. This assay platform provides a homogenous screening method for measuring kinase activity by quantitating the amount of phospho-substrate in solution following a kinase reaction. In the presence of kinase and ATP, the Ulight-peptide is phosphorylated and captured by an anti-phospho-substrate antibody, which brings the Eu chelate donor and Ulight acceptor dyes into close proximity. […] The contents of the plate were and incubated at RT for 1 h. The reaction was stopped by adding 5 μl of stop solution to each test well followed by mixing and incubation at RT for 10 minutes. 5 μl of detection mix (detection antibody diluted in detection buffer) was added; the contents of the plate were mixed and then incubated in the dark for 1 hour at RT. […] The results were graphed to calculate the EC50. Titration of ATP at the EC50 concentration of kinase to determine ATP Km,app. was performed using the following method. […] The contents of the plate were and incubated at RT for 1 h. The reaction was stopped by adding 5 μl of stop solution to each test well followed by mixing and incubation at RT for 10 minutes. 5 μl of detection mix (detection antibody diluted in detection buffer) was added; the contents of the plate were mixed and then incubated in the dark for 1 hour at RT. […] The results were graphed to calculate the EC50 as the ATP Km,app. […] If compound is not soluble under this condition, it was diluted to 3 mM. Kinase reaction buffer was prepared containing 10 mM MgCl2, 50 mM HEPES, 1 mM EGTA, 0.01% TWEEN-20, 2 mM DTT. […] As a positive control, 2.5 μl of positive compound was added to assay wells, and 2.5 μl of DMSO to assay wells as vehicle control. Kinase solution was prepared in reaction buffer at 2× final assay concentration. Kinase solution (5 μl) was added to each well of the assay plate. The substrate and ATP solution was prepared in kinase reaction buffer at 4× final assay concentration. The kinase reaction was started by adding 2.5 μl of substrate+ATP mix solution to each well of the assay plate. The plate is mixed on a plate shaker; then covered and allowed to react for 2 hours in the dark at 25° C. without shaking. The reaction was stopped by adding 5 μl of stop solution to each test well followed by mixing and incubation at RT for 10 minutes in the dark. 5 μl of detection mix (detection antibody diluted in detection buffer) was added; the contents of the plate were mixed and then incubated in the dark for 1 hour at RT.
Background: Time-resolved FRET reads energy transfer from a long-lived donor to a nearby acceptor.

PASK (Homo sapiens (Human), UniProt Q96RG2), sequence (Q96RG2 999-1251): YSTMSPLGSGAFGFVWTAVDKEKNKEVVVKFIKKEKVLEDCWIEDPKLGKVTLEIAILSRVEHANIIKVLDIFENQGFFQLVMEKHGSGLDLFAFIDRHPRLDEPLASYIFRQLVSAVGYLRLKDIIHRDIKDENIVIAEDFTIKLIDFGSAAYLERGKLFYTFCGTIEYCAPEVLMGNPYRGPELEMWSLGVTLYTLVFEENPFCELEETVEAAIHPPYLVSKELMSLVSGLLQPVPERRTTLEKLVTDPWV
PASK (UniProt # Q96RG2; human recombinant N-terminal GST tagged construct, residues 879-1323) (Homo sapiens (Human), UniProt Q96RG2), sequence (Q96RG2 879-1323, stated change not applied): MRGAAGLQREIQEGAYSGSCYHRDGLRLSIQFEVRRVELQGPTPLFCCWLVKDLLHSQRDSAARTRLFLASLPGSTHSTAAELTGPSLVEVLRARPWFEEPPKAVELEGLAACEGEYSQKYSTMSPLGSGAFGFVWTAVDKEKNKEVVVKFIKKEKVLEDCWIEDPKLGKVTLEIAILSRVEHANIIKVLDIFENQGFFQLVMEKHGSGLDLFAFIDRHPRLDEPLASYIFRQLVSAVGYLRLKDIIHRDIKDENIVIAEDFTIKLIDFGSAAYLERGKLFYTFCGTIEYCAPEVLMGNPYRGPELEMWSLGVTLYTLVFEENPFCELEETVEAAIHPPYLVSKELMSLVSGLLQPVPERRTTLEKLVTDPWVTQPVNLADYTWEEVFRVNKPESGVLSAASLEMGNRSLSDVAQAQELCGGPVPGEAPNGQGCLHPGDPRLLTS

By IC50 is commonly meant the concentration that inhibits the measured activity by half. As for `CN(c1nc2cc(C(=O)O)ccc2nc1-c1ccccc1)C1CC1` [Example 46, 3-(Cyclopropyl(methyl)amino)-2-phenylquinoxaline-6-carboxylic acid], the IC50 in experiment [1] was < 10 µM; in experiment [2], ≤ 10 µM.
In the same order, the values of `CC(C)N(C)c1nc2cc(C(=O)O)ccc2nc1-c1ccc2c(c1)OCCO2` [Example 81, 2-(2,3-Dihydrobenzo[b][1,4]dioxin-6-yl)-3-(isopropyl(methyl)amino)quinoxaline-6-carboxylic acid] are < 10 µM and ≤ 10 µM.
For `O=C(O)c1ccc2nc(-c3ccccc3)c(N3CCCc4ccccc43)nc2c1` [Example 40, 3-(3,4-Dihydroquinolin-1(2H)-yl)-2-phenylquinoxaline-6-carboxylic acid], in that order: < 10 µM and ≤ 10 µM.
For `COCC1CCCN(c2nc3cc(C(=O)O)ccc3nc2-c2ccc(F)cc2)C1` (stereo not shown) [Example 78, 2-(4-Fluorophenyl)-3-(3-(methoxymethyl)piperidin-1-yl)quinoxaline-6-carboxylic acid], in that order: < 10 µM and ≤ 10 µM.
Turning to `O=C(O)c1ccc2nc(-c3ccc(F)cc3)c(N3CCCCC3)nc2c1` [Example 75, 2-(4-Fluorophenyl)-3-(piperidin-1-yl)quinoxaline-6-carboxylic acid], the IC50 in experiment [1] is < 10 µM; in experiment [2] it was ≤ 10 µM.
In the same order, the values of `C[C@H]1CCCN1c1nc2cc(C(=O)O)ccc2nc1-c1ccc2c(c1)OCO2` [Example 83, 2-(Benzo[d][1,3]dioxol-5-yl)-3-((S)-2-methylpyrrolidin-1-yl)quinoxaline-6-carboxylic acid] are < 10 µM and ≤ 10 µM.
In the same order, the values of `CC(C)N(C)c1nc2cc(C(=O)O)ccc2nc1-c1ccncc1` [Example 87, 3-(Isopropyl(methyl)amino)-2-(pyridin-4-yl)quinoxaline-6-carboxylic acid] are < 10 µM and ≤ 10 µM.
For `O=C(O)c1ccc2nc(-c3ccccc3)c(N3CCC[C@@H]3CO)nc2c1` [Example 52, (R)-3-(2-(Hydroxymethyl)pyrrolidin-1-yl)-2-phenylquinoxaline-6-carboxylic acid], in that order: < 10 µM and ≤ 10 µM.
Consider `CC(C)N(C)c1nc2cc(C(=O)O)ccc2nc1-c1ccc(F)c(F)c1` [Example 63, 2-(3,4-Difluorophenyl)-3-(isopropyl(methyl)amino)quinoxaline-6-carboxylic acid], for which the IC50 in experiment [1] is < 10 µM; in experiment [2], ≤ 10 µM.
In the same order, the values of `CC(C)N(C)c1nc2cc(C(=O)O)ccc2nc1-c1ccc2[nH]ccc2c1` [Example 84, 2-(1H-Indol-5-yl)-3-(isopropyl(methyl)amino)quinoxaline-6-carboxylic acid] are < 10 µM and ≤ 10 µM.
In the same order, the values of `CC(C)N(C)c1nc2cc(C(=O)O)ccc2nc1-c1ccc(F)cc1` [Example 57, 2-(4-Fluorophenyl)-3-(isopropyl(methyl)amino)quinoxaline-6-carboxylic acid] are < 10 µM and ≤ 10 µM.
For `COC[C@H]1CCCN1c1nc2cc(C(=O)O)ccc2nc1-c1ccccc1` [Example 51, (R)-3-(2-(Methoxymethyl)pyrrolidin-1-yl)-2-phenylquinoxaline-6-carboxylic acid], in that order: < 10 µM and ≤ 10 µM.
`CC(C)N(C)c1nc2cc(C(=O)O)ccc2nc1-c1ccc(Cl)cc1` [Example 64, 2-(4-Chlorophenyl)-3-(isopropyl(methyl)amino)quinoxaline-6-carboxylic acid]: the values for the IC50 in experiment [1] and in experiment [2] were < 10 µM and ≤ 10 µM, respectively.
In the same order, the values of `O=C(O)c1ccc2nc(-c3ccccc3)c(N3CCC[C@@H]3C(F)(F)F)nc2c1` [Example 65, (R)-2-Phenyl-3-(2-(trifluoromethyl)pyrrolidin-1-yl)quinoxaline-6-carboxylic acid] are < 10 µM and ≤ 10 µM.
For the molecule `CC(C)N(C)c1nc2cc(C(=O)O)ccc2nc1-c1ccccc1` [Example 43, 3-(Isopropyl(methyl)amino)-2-phenylquinoxaline-6-carboxylic acid], the half-maximal inhibitory concentration (IC50) in experiment [1] was < 10 µM; in experiment [2], ≤ 10 µM.
In the same order, the values of `CC(C)N(C)c1nc2cc(C(=O)O)ccc2nc1-c1cc2ccccc2o1` [Example 89, 2-(Benzofuran-2-yl)-3-(isopropyl(methyl)amino)quinoxaline-6-carboxylic acid] are < 10 µM and ≤ 10 µM.
For `COc1ccc2c(c1)CCCN2c1nc2cc(C(=O)O)ccc2nc1-c1ccccc1` [Example 66, 3-(6-Methoxy-3,4-dihydroquinolin-1(2H)-yl)-2-phenylquinoxaline-6-carboxylic acid], in that order: < 10 µM and ≤ 10 µM.

For the origin of these results see patent US10781185B2, “Heterocyclic compounds for the inhibition of PASK” (BioEnergenix LLC, priority 2009, dated 2020).
